# Laboratory results reported in PubChem BioAssay AID2305 (GlaxoSmithKline (GSK), 2010).
# System: P. falciparum 3D7 growth, pLDH absorbance
# Assay: blood-stage malaria parasite growth potency – strain 3D7, dose response (AID 2305)
row,Structure (SMILES),IC50 [µM]
1,O=C(/C=C/c1ccc(Cl)c(Cl)c1)NCCCCCN1CCCC(CNC(=O)Nc2ccc(Oc3ccccc3)cc2)C1 (centres undefined),0.78
2,COc1ccc(OCC(=O)Nc2nc(-c3ccc(OC)cc3)c(C)s2)cc1,1.95
3,CO/C(=C\C=C\c1cc2cc(Cl)c(Cl)cc2[nH]1)C(=O)NCCCNC12CC3CC(CC(C3)C1)C2,0.73
4,NC(=O)C1CCN(Cc2cccc(-c3cccc(-c4nc5ccc(C(F)(F)F)cc5[nH]4)c3)c2)CC1,0.64
5,N#Cc1ccc2c(c1)CCN(CCC1CCC(NC(=O)/C=C/c3ccc4ccccc4c3)CC1)CC2 (centres undefined),0.72
6,COc1cc(Nc2nc(N)c3cc(OC)c(OC)cc3n2)cc(OC)c1,0.27
7,O=C(Nc1ccc(OC2CCN(Cc3ccc(F)cc3)CC2)c(Cl)c1)c1ccco1,0.3
8,CNC(=O)C1Cc2c([nH]c3cc(Br)ccc23)C2(CCN(CCc3ccccc3)CC2)N1 (centres undefined),0.72
9,CCNc1cc(C(=O)N[C@@H](Cc2ccccc2)[C@H](O)CNCCc2cccc3ccccc23)cc(N2CCCC2=O)c1,0.98
10,COc1ccc(C2CC(=O)C3=C(C2)NC(C)=C(C(=O)OC2CCCC2)C3c2cccc(O)c2)cc1 (centres undefined),1.01
11,CCN(CC)CCN1C(=O)c2oc3ccc(Cl)cc3c(=O)c2C1c1ccc(SC)cc1 (centres undefined),1.06
12,COc1ccccc1N1CCN(CCCCNC(=O)c2ccc(NC(=O)c3ccc(C(F)(F)F)cc3)cc2)CC1,0.3
13,OC(CN(Cc1ccccc1)Cc1ccccc1)Cn1c2ccc(Cl)cc2c2cc(Cl)ccc21 (centres undefined),0.99
14,O=C(NCCN1CCCC1)N1CCCN(c2ncnc3cc(-c4ccc(F)cc4)sc23)CC1,0.9
15,O=C(Nc1cccc(CN2CCCN(Cc3ccc4c(c3)OCO4)CC2)c1)c1cc2ccccc2s1,0.99
16,COc1cc(-c2ccccc2)ccc1C(=O)Nc1ccc2c(c1)N(C)CCC2,0.33
17,NC(=O)c1cccc(Nc2nccc(Nc3ccc(Oc4ccc5ccccc5c4)cc3)n2)c1,0.81
18,Cc1c(CNCCCNc2nc3ccncc3[nH]2)sc(Br)c1Br,1.04
19,CC(C)(C)c1ccc(CN2CCC(NC(=O)c3cc(-c4cccc(C(F)(F)F)c4)cs3)C2)cc1 (centres undefined),0.81
20,c1ccc(Oc2ccc(Nc3ccnc4cc(-c5csc(CNCCN6CCOCC6)n5)ccc34)cc2)cc1,0.71

row,Structure (SMILES),IC50 [µM]
1,Cc1cc(N2CCOCC2)nc(Nc2ccc(NC(=O)c3cccc4ccccc34)cc2)n1,1.3
2,CN1CCN(CC(O)CNC(=O)Nc2ccc(Br)cc2)CC1 (centres undefined),0.15
3,CCN(CCCN1CCCCC1)c1cc(C)nc(Nc2cccc(C(F)(F)F)c2)n1,0.29
4,Cc1cccc2[nH]c(-c3cccc(-c4cccc(CNCc5ccc(S(C)(=O)=O)cc5)c4)c3)nc12,0.3
5,COc1ccc2nccc([C@@H](O)CN3CCC(NCc4nc5c(C#N)cccc5[nH]4)CC3)c2c1,1
6,Cc1cc(-c2cccc(CNCc3ccc(F)cc3)c2)ccc1S(=O)(=O)NCCN1CCCC1,0.73
7,O=C(Nc1ccc(N2CCCN(Cc3cccc(F)c3)CC2)cc1)c1cccs1,0.55
8,Cc1cc(Cl)c(S(=O)(=O)NC2CCCC2)cc1OCC(=O)NC1CCCCC1,0.38
9,Cc1nc(SCC(=O)N2CCCC2=O)c2c(C)c(C)sc2n1,0.17
10,CC(C)C(=O)NC(Nc1ccc([N+](=O)[O-])cc1)C(Cl)(Cl)Cl (centres undefined),0.84
11,CN1CCN(c2ccnc3ccc(NC(=O)Nc4cccc5c(Br)cccc45)cc23)CC1,0.15
12,CCOc1ccc2ccccc2c1CNCCCCCCNCc1c(OCC)ccc2ccccc12,0.58
13,CN1CCC(Oc2cc(CN3CC[C@H](NC(=O)c4ccc(Cl)c(Cl)c4)C3)ccc2I)C1 (some centres undefined),0.84
14,O=C(Nc1cccc(OCc2ccccc2)c1)c1ccc(CN2CCC(Cc3ccccc3)CC2)cc1,0.85
15,Cc1cc(N[C@@H](CC(C)C)C(=O)NCCOc2ccccc2)nc(NCCc2ccccc2)n1,1.51
16,N#Cc1ccc(N(CCOC(=O)c2ccccc2)Cc2ccccc2C(F)(F)F)cc1C(F)(F)F,0.92
17,CC(C)c1cc(Oc2c(I)cc(CCCc3ncc[nH]3)cc2I)ccc1O,1.12
18,c1ccc(COc2ccccc2COc2ccccc2-c2ccc3cccnc3n2)cc1,0.92
19,Cc1cc(NC(=O)NCCN2CCC(NS(=O)(=O)c3ccccc3Cl)C2)c2ccccc2n1 (centres undefined),0.82
